# Reference: ChEMBL document CHEMBL4028852, “Design of a Chemical Probe for the Bromodomain and Plant Homeodomain Finger-Containing (BRPF) Family of Proteins” (J Med Chem, 2017)
# What was measured:
# [1] = molecular target: T1, ATPase family AAA domain-containing protein 2 (Homo sapiens, UniProt Q6PL18); assay: Inhibition of human ATAD2A (981 to 1108 residues) expressed in Escherichia coli BL21 after 1 hr by BROMOscan assay
# T1 sequence (Q6PL18 whole entry): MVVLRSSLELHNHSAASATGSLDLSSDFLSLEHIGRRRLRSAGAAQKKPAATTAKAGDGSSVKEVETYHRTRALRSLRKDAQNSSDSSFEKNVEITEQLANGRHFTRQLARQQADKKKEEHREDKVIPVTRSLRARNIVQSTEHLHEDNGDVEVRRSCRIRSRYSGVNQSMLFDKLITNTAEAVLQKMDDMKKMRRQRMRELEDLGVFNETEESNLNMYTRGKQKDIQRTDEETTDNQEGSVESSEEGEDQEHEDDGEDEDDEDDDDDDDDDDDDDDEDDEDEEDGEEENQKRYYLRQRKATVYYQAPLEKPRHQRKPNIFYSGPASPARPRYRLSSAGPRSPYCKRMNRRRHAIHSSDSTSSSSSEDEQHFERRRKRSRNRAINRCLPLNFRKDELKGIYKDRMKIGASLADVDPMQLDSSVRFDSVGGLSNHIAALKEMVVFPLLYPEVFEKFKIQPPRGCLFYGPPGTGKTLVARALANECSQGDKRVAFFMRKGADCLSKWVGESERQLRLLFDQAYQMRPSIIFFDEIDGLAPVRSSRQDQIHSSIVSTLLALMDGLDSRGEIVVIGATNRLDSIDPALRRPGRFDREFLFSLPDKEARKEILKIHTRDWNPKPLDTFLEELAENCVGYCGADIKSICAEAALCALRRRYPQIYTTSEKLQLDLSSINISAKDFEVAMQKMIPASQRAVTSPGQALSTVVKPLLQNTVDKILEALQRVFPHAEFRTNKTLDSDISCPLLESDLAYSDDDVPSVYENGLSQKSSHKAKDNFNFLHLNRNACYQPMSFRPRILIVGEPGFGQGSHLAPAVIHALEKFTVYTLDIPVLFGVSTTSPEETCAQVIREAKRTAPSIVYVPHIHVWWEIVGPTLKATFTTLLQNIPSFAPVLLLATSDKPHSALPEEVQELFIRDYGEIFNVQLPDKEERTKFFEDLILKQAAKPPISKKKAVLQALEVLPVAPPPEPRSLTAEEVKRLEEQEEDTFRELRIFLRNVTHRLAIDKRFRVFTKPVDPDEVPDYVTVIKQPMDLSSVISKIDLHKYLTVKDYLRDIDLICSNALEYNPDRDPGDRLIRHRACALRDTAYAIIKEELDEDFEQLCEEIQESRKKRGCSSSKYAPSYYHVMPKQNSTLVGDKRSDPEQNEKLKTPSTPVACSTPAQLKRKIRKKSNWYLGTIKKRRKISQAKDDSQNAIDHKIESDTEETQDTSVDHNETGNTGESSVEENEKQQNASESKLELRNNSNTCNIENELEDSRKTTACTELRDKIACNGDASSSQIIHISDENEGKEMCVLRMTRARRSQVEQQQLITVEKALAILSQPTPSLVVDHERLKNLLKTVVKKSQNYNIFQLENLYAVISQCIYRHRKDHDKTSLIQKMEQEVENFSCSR
# [2] = molecular target: T2, Bromodomain-containing protein 9 (Homo sapiens, UniProt Q9H8M2); assay: Inhibition of His-tagged BRD9 (unknown origin) after 30 mins by alphaScreen assay
# T2 sequence (Q9H8M2 whole entry): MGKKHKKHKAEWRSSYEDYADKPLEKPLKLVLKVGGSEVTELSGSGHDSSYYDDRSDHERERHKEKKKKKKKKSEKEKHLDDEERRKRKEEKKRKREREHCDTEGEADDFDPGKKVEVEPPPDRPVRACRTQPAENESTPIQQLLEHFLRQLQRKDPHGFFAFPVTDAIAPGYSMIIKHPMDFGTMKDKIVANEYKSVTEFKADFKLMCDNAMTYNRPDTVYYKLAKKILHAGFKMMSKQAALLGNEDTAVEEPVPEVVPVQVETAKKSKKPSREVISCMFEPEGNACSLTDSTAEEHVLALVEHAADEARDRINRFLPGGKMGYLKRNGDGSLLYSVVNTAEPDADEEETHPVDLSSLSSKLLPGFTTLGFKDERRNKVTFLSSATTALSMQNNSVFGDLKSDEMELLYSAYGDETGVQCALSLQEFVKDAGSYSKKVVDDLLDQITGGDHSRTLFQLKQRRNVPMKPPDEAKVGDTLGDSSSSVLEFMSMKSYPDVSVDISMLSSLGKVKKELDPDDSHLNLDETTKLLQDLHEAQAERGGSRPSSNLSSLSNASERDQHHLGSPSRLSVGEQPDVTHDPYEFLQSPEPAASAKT
structure (smiles),measurement,setting,value
COc1cc(C#N)ccc1S(=O)(=O)Nc1ccc2c(c1)cc(C)c(=O)n2C,IC50,[1],> 100 µM
same,IC50,[2],4.4 µM
